According to paper PMC8697972, “New Auranofin Analogs with Antibacterial Properties against Burkholderia Clinical Isolates” (Antibiotics, 2021):
Converted amounts (≈) assume the structure as drawn. Like-named read-outs stand apart in the source and are kept apart here.

What was measured:
B. cenocepacia K56-2 = type: cell-based, Burkholderia cenocepacia; conditions: 18 h
B. lata BCC6 = type: cell-based, Burkholderia lata
B. contaminans MF16 = type: cell-based, Burkholderia contaminans
[1] = system: B. contaminans FFH-2050MA; type: cell-based, Burkholderia contaminans
B. dolosa CEP021 = type: cell-based, Burkholderia dolosa
B. multivorans ATCC17616 = type: cell-based, Burkholderia multivorans
B. cenocepacia 140485 = type: cell-based, Burkholderia cenocepacia
B. ubonensis LMG 20358 = type: cell-based, Burkholderia ubonensis
B. contaminans FFH-4004 = type: cell-based, Burkholderia contaminans
[2] = B. cenocepacia K56-2, CAMHB, 37 °C
[3] = Burkholderia contaminans, FFH2050MA
[4] = Burkholderia multivorans, ATCC17616
[5] = Burkholderia cenocepacia, 140485
[6] = Burkholderia ubonensis, LMG20358
[7] = Burkholderia contaminans, FFH4004

Compound	MIC (B. cenocepacia K56-2; [2])	MIC (B. lata BCC6; B. lata BCC6)	MIC (B. contaminans MF16; B. contaminans MF16)	MIC ([1]; B. contaminans FFH-2050MA)	MIC (B. dolosa CEP021; B. dolosa CEP021)	MIC (B. multivorans ATCC17616; B. multivorans ATCC17616)	MIC (B. cenocepacia 140485; B. cenocepacia 140485)	MIC (B. ubonensis LMG 20358; B. ubonensis LMG 20358)	MIC (B. contaminans FFH-4004; B. contaminans FFH-4004)	MIC (B. cenocepacia K56-2; Burkholderia cenocepacia)	MIC (B. lata BCC6; Burkholderia lata, BCC6)	MIC (B. contaminans MF16; Burkholderia contaminans, MF16)	MIC [1, 3]	MIC (B. dolosa CEP021; Burkholderia dolosa, CEP021)	MIC (B. multivorans ATCC17616; [4])	MIC (B. cenocepacia 140485; [5])	MIC (B. ubonensis LMG 20358; [6])	MIC (B. contaminans FFH-4004; [7])
CC[P+](CC)(CC)[Au-][S]C1OC(CO)C(O)C(O)C1O (mixture of isomers) [WB-16-EO9899]	> 128 µg/mL	128 µg/mL	128 µg/mL	128 µg/mL	> 128 µg/mL	128 µg/mL	32 µg/mL	> 128 µg/mL	> 128 µg/mL									
C[P+](C)(C)[Au-][S]CC(O)CO (racemic) [WB-19-HL4171]	32 µg/mL	32 µg/mL	64 µg/mL	32 µg/mL	64 µg/mL	32 µg/mL	16 µg/mL	>128 µg/mL	32 µg/mL									
CC(C)(O/N=C(\C(=O)N[C@@H]1C(=O)N2C(C(=O)[O-])=C(C[n+]3ccccc3)CS[C@H]12)c1csc(N)n1)C(=O)O [CAZ, ceftazidime, reference compound]										32 µg/mL (≈ 58.5 µM)	64 µg/mL (≈ 117 µM)	32 µg/mL (≈ 58.5 µM)	8 µg/mL (≈ 14.6 µM)	16 µg/mL (≈ 29.3 µM)	16 µg/mL (≈ 29.3 µM)	8 µg/mL (≈ 14.6 µM)	16 µg/mL (≈ 29.3 µM)	8 µg/mL (≈ 14.6 µM)
NC[C@H]1O[C@H](O[C@H]2[C@H](O)[C@@H](O[C@H]3O[C@H](CO)[C@@H](O)[C@H](N)[C@H]3O)[C@H](N)C[C@@H]2N)[C@H](N)C[C@@H]1O [TOB, tobramycin, reference compound]										512 µg/mL (≈ 1100 µM)	128 µg/mL (≈ 274 µM)	32 µg/mL (≈ 68.4 µM)	128 µg/mL (≈ 274 µM)	128 µg/mL (≈ 274 µM)	64 µg/mL (≈ 137 µM)	128 µg/mL (≈ 274 µM)	128 µg/mL (≈ 274 µM)	64 µg/mL (≈ 137 µM)
CC[P+](CC)(CC)[Au-][S][C@@H]1O[C@H](CO)[C@@H](O)[C@H](O)[C@H]1O [WB-18-FI3683]	> 128 µg/mL	128 µg/mL	128 µg/mL	128 µg/mL	> 128 µg/mL	128 µg/mL	64 µg/mL	> 128 µg/mL	> 128 µg/mL									
CC(=O)N[C@@H]1[C@@H](O)[C@H](O)[C@@H](CO)O[C@H]1[S][Au-][P+](C)(C)C [WB-19-HB2664]	> 128 µg/mL	128 µg/mL	128 µg/mL	64 µg/mL	> 128 µg/mL	128 µg/mL	128 µg/mL	128 µg/mL	128 µg/mL									
CC(=O)OC[C@H]1O[C@@H]([S][Au-][P+](C)(C)C)[C@H](OC(C)=O)[C@@H](OC(C)=O)[C@@H]1OC(C)=O [WB-19-HG5899]	> 128 µg/mL	128 µg/mL	128 µg/mL	64 µg/mL	> 128 µg/mL	128 µg/mL	128 µg/mL	128 µg/mL	128 µg/mL									
CP(C)C.CP(C)C.F[P-](F)(F)(F)(F)F.[Au+] [WB-19-HL4121a]	128 µg/mL	32 µg/mL	32 µg/mL	32 µg/mL	128 µg/mL	64 µg/mL	32 µg/mL	128 µg/mL	64 µg/mL									
C[P+](C)(C)[Au-][S]CCCO [WB-19-HL4172]	32 µg/mL	16 µg/mL	32 µg/mL	16 µg/mL	32 µg/mL	32 µg/mL	32 µg/mL	32 µg/mL	32 µg/mL									
C[P+](C)(C)[Au-][S]CCN [WB-19-HL4181]	32 µg/mL	16 µg/mL	64 µg/mL	32 µg/mL	64 µg/mL	32 µg/mL	32 µg/mL	32 µg/mL	32 µg/mL									
